In ChEMBL document CHEMBL4145553, “Design, synthesis, and biological evaluation of novel amide and hydrazide based thioether analogs targeting Histone deacteylase (HDAC) enzymes” (Eur J Med Chem, 2018):
Calls of active or inactive are those of the source. The rule behind the calls is not given here.

Tests used:
UACC-62 = assay: Growth inhibition of human UACC62 cells incubated for 48 hrs by sulforhodamine B assay; type: functional; settings: UACC-62, 48 h
IGROV-1 [1] = assay: Growth inhibition of human IGROV1 cells assessed as cell growth at 10^-5 M incubated for 48 hrs by sulforhodamine B assay relative to control; type: functional; settings: IGROV-1, 48 h, read-out: Activity
NCI-H226 = assay: Growth inhibition of human NCI-H226 cells assessed as cell growth at 10^-5 M incubated for 48 hrs by sulforhodamine B assay relative to control; type: functional; settings: NCI-H226, 48 h, read-out: Activity
SNB-75 = assay: Growth inhibition of human SNB75 cells assessed as cell growth at 10^-6 M incubated for 48 hrs by sulforhodamine B assay relative to control; type: functional; settings: SNB-75, 48 h, read-out: Activity
SF-539 = assay: Growth inhibition of human SF539 cells assessed as cell growth at 10^-4 M incubated for 48 hrs by sulforhodamine B assay relative to control; type: functional; settings: SF-539, 48 h, read-out: Activity
SK-OV-3 = assay: Growth inhibition of human SKOV3 cells assessed as cell growth at 10^-6 M incubated for 48 hrs by sulforhodamine B assay relative to control; type: functional; settings: SK-OV-3, 48 h, read-out: Activity
MDA-MB-435 [2] = assay: Cell cycle arrest in human MDA-MB-435 cells assessed as accumulation at G2-phase by propidium iodide staining based flow cytometry (reference value: 3.68%); type: functional
A549 [3] = assay: Growth inhibition of human A549/ATCC cells assessed as cell growth at 10^-4 M incubated for 48 hrs by sulforhodamine B assay relative to control; type: functional; settings: A549, 48 h, read-out: Activity
RXF 393 [4] = assay: Growth inhibition of human RXF393 cells assessed as cell growth at 10^-5 M incubated for 48 hrs by sulforhodamine B assay relative to control; type: functional; settings: RXF 393, 48 h, read-out: Activity
RXF 393 [5] = assay: Growth inhibition of human RXF393 cells assessed as cell growth at 10^-6 M incubated for 48 hrs by sulforhodamine B assay relative to control; type: functional; settings: RXF 393, 48 h, read-out: Activity
NCI-H322M = assay: Growth inhibition of human NCI-H322M cells assessed as cell growth at 10^-4 M incubated for 48 hrs by sulforhodamine B assay relative to control; type: functional; settings: read-out: Activity
IGROV-1 [6] = assay: Growth inhibition of human IGROV1 cells assessed as cell growth at 10^-4 M incubated for 48 hrs by sulforhodamine B assay relative to control; type: functional; settings: IGROV-1, 48 h, read-out: Activity
A549 [7] = assay: Growth inhibition of human A549/ATCC cells assessed as cell growth at 10^-8 M incubated for 48 hrs by sulforhodamine B assay relative to control; type: functional; settings: A549, 48 h, read-out: Activity
SW-620 = assay: Growth inhibition of human SW620 cells assessed as cell growth at 10^-7 M incubated for 48 hrs by sulforhodamine B assay relative to control; type: functional; settings: SW-620, 48 h, read-out: Activity
HCT-116 = assay: Growth inhibition of human HCT116 cells assessed as cell growth at 10^-6 M incubated for 48 hrs by sulforhodamine B assay relative to control; type: functional; settings: HCT-116, 48 h, read-out: Activity
SK-MEL-2 = assay: Growth inhibition of human SK-MEL-2 cells assessed as cell growth at 10^-5 M incubated for 48 hrs by sulforhodamine B assay relative to control; type: functional; settings: SK-MEL-2, 48 h, read-out: Activity
SK-MEL-28 = assay: Growth inhibition of human SK-MEL-28 cells assessed as cell growth at 10^-4 M incubated for 48 hrs by sulforhodamine B assay relative to control; type: functional; settings: SK-MEL-28, 48 h, read-out: Activity
MDA-MB-435 [8] = assay: Downregulation of HDAC3 mRNA expression in human MDA-MB-435 cells by qRT-PCR method; type: functional, cell-based
MDA-MB-231 = assay: Growth inhibition of human MDA-MB-231 cells assessed as cell growth at 10^-5 M incubated for 48 hrs by sulforhodamine B assay relative to control; type: functional; settings: MDA-MB-231, 48 h, read-out: Activity
HL-60(TB) = assay: Growth inhibition of human HL-60(TB) cells assessed as cell growth at 10^-8 M incubated for 48 hrs by sulforhodamine B assay relative to control; type: functional; settings: HL-60, 48 h, read-out: Activity
RXF 393 [9] = assay: Growth inhibition of human RXF393 cells assessed as cell growth at 10^-8 M incubated for 48 hrs by sulforhodamine B assay relative to control; type: functional; settings: RXF 393, 48 h, read-out: Activity
RPMI-8226 = assay: Growth inhibition of human RPMI8226 cells assessed as cell growth at 10^-8 M incubated for 48 hrs by sulforhodamine B assay relative to control; type: functional; settings: RPMI-8226, 48 h, read-out: Activity
MDA-MB-468 = assay: Growth inhibition of human MDA-MB-468 cells assessed as cell growth at 10^-6 M incubated for 48 hrs by sulforhodamine B assay relative to control; type: functional; settings: MDA-MB-468, 48 h, read-out: Activity
MOLT-4 = assay: Growth inhibition of human MOLT4 cells assessed as cell growth at 10^-5 M incubated for 48 hrs by sulforhodamine B assay relative to control; type: functional; settings: MOLT-4, 48 h, read-out: Activity
Hs-578T = assay: Growth inhibition of human Hs 578T cells assessed as cell growth at 10^-6 M incubated for 48 hrs by sulforhodamine B assay relative to control; type: functional; settings: read-out: Activity
OVCAR-8 = assay: Growth inhibition of human OVCAR8 cells assessed as cell growth at 10^-7 M incubated for 48 hrs by sulforhodamine B assay relative to control; type: functional; settings: OVCAR-8, 48 h, read-out: Activity
MDA-MB-435 [10] = assay: Downregulation of HDAC1 mRNA expression in human MDA-MB-435 cells by qRT-PCR method; type: functional, cell-based
SK-MEL-5 [11] = assay: Growth inhibition of human SK-MEL-5 cells incubated for 48 hrs by sulforhodamine B assay; type: functional; settings: SK-MEL-5, 48 h
HCT-15 = assay: Growth inhibition of human HCT15 cells assessed as cell growth at 10^-7 M incubated for 48 hrs by sulforhodamine B assay relative to control; type: functional; settings: HCT-15, 48 h, read-out: Activity
SK-MEL-5 [12] = assay: Growth inhibition of human SK-MEL-5 cells assessed as cell growth at 10^-7 M incubated for 48 hrs by sulforhodamine B assay relative to control; type: functional; settings: SK-MEL-5, 48 h, read-out: Activity
MDA-MB-435 [13] = assay: Growth inhibition of human MDA-MB-435 cells incubated for 48 hrs by sulforhodamine B assay; type: functional; settings: MDA-MB-435, 48 h
[14] = read-out: LC50 (the source's name)
[15] = read-out: pLC50 (the source's name) (converted)

CCS/C(Nc1ccccc1)=C(\C#N)C(=O)Nc1ccc(OC)cc1
GI50 (UACC-62; read-out: GI50): 2580 nM | CC50 (UACC-62; [14]): > 100000 nM | TGI (UACC-62; read-out: TGI): > 100000 nM | GI50 (UACC-62; read-out: pGI50 (converted)): 2570 nM | CC50 (UACC-62; [15]): > 100000 nM | TGI (UACC-62; read-out: pTGI): > 100000 nM | growth at 10 µM (IGROV-1 [1]): 39% | growth at 10 µM (NCI-H226): 37% | growth at 1 µM (SNB-75): 81% | growth at 100 µM (SF-539): -54% | growth at 1 µM (SK-OV-3): 93% | Activity (MDA-MB-435 [2]): 16.44% | growth at 100 µM (A549 [3]): 15% | growth at 10 µM (RXF 393 [4]): -10% | growth at 1 µM (RXF 393 [5]): 82% | growth at 100 µM (NCI-H322M): 37% | growth at 100 µM (IGROV-1 [6]): 28% | growth at 0.01 µM (A549 [7]): 95% | growth at 0.1 µM (SW-620): 94% | growth at 1 µM (HCT-116): 69% | growth at 10 µM (SK-MEL-2): 11% | growth at 100 µM (SK-MEL-28): 37% | Activity (MDA-MB-435 [8]): Active | growth at 10 µM (MDA-MB-231): 23% | growth at 0.01 µM (HL-60(TB)): 96% | growth at 0.01 µM (RXF 393 [9]): 106% | growth at 0.01 µM (RPMI-8226): 94% | growth at 1 µM (MDA-MB-468): 60% | growth at 10 µM (MOLT-4): 21% | growth at 1 µM (Hs-578T): 84% | growth at 0.1 µM (OVCAR-8): 99% | Activity (MDA-MB-435 [10]): Active | GI50 (SK-MEL-5 [11]; read-out: GI50): 2200 nM | CC50 (SK-MEL-5 [11]; [14]): 68200 nM | TGI (SK-MEL-5 [11]; read-out: TGI): 8190 nM | GI50 (SK-MEL-5 [11]; read-out: pGI50 (converted)): 2190 nM | CC50 (SK-MEL-5 [11]; [15]): 67600 nM | TGI (SK-MEL-5 [11]; read-out: pTGI (converted)): 8130 nM | growth at 0.1 µM (HCT-15): 88% | growth at 0.1 µM (SK-MEL-5 [12]): 90% | GI50 (MDA-MB-435 [13]; read-out: GI50): 370 nM | CC50 (MDA-MB-435 [13]; [14]): > 100000 nM | TGI (MDA-MB-435 [13]; read-out: TGI): 1890 nM | GI50 (MDA-MB-435 [13]; read-out: pGI50 (converted)): 372 nM | CC50 (MDA-MB-435 [13]; [15]): > 100000 nM | TGI (MDA-MB-435 [13]; read-out: pTGI (converted)): 1910 nM

CCS/C(Nc1ccccc1)=C(\C#N)C(=O)N/N=C\c1ccc(Cl)cc1Cl
GI50 (UACC-62; read-out: GI50): 2740 nM | CC50 (UACC-62; [14]): > 100000 nM | TGI (UACC-62; read-out: TGI): > 100000 nM | GI50 (UACC-62; read-out: pGI50 (converted)): 2750 nM | CC50 (UACC-62; [15]): > 100000 nM | TGI (UACC-62; read-out: pTGI): > 100000 nM | growth at 10 µM (IGROV-1 [1]): 42% | growth at 10 µM (NCI-H226): 27% | growth at 1 µM (SNB-75): 76% | growth at 100 µM (SF-539): -6% | growth at 1 µM (SK-OV-3): 92% | Activity (MDA-MB-435 [2]): 12.4% | growth at 100 µM (A549 [3]): 18% | growth at 10 µM (RXF 393 [4]): -5% | growth at 1 µM (RXF 393 [5]): 75% | growth at 100 µM (NCI-H322M): 32% | growth at 100 µM (IGROV-1 [6]): 30% | growth at 0.01 µM (A549 [7]): 97% | growth at 0.1 µM (SW-620): 92% | growth at 1 µM (HCT-116): 89% | growth at 10 µM (SK-MEL-2): 16% | growth at 100 µM (SK-MEL-28): 45% | Activity (MDA-MB-435 [8]): Active | growth at 10 µM (MDA-MB-231): 32% | growth at 0.01 µM (HL-60(TB)): 97% | growth at 0.01 µM (RXF 393 [9]): 93% | growth at 0.01 µM (RPMI-8226): 101% | growth at 1 µM (MDA-MB-468): 88% | growth at 10 µM (MOLT-4): 22% | growth at 1 µM (Hs-578T): 75% | growth at 0.1 µM (OVCAR-8): 96% | Activity (MDA-MB-435 [10]): Active | GI50 (SK-MEL-5 [11]; read-out: GI50): 2280 nM | CC50 (SK-MEL-5 [11]; [14]): > 100000 nM | TGI (SK-MEL-5 [11]; read-out: TGI): 8540 nM | GI50 (SK-MEL-5 [11]; read-out: pGI50 (converted)): 2290 nM | CC50 (SK-MEL-5 [11]; [15]): > 100000 nM | TGI (SK-MEL-5 [11]; read-out: pTGI (converted)): 8510 nM | growth at 0.1 µM (HCT-15): 87% | growth at 0.1 µM (SK-MEL-5 [12]): 90% | GI50 (MDA-MB-435 [13]; read-out: GI50): 419 nM | CC50 (MDA-MB-435 [13]; [14]): 9260 nM | TGI (MDA-MB-435 [13]; read-out: TGI): 2230 nM | GI50 (MDA-MB-435 [13]; read-out: pGI50 (converted)): 417 nM | CC50 (MDA-MB-435 [13]; [15]): 9330 nM | TGI (MDA-MB-435 [13]; read-out: pTGI (converted)): 2240 nM
